Results reported in paper PMC11104609, “Discovery of allosteric regulators with clinical potential to stabilize alpha-L-iduronidase in mucopolysaccharidosis type I” (PLOS ONE, 2024).

Legend:
rhIDUA (Aldurazyme) = molecular target: T1, rhIDUA (Aldurazyme) (Homo sapiens, UniProt P35475); experiment: IDUA assay in bone marrow of mice co-administered rhIDUA and GT-01803; type: in vivo, male C57BL/6 mice; settings: GT-01803 5, 10, 20 mg/kg i.v. + rhIDUA 1.2 mg/kg i.v.; 6, 8, 10 h; dose-dependent, significant at 20 mg/kg
T1 sequence (P35475 28-653): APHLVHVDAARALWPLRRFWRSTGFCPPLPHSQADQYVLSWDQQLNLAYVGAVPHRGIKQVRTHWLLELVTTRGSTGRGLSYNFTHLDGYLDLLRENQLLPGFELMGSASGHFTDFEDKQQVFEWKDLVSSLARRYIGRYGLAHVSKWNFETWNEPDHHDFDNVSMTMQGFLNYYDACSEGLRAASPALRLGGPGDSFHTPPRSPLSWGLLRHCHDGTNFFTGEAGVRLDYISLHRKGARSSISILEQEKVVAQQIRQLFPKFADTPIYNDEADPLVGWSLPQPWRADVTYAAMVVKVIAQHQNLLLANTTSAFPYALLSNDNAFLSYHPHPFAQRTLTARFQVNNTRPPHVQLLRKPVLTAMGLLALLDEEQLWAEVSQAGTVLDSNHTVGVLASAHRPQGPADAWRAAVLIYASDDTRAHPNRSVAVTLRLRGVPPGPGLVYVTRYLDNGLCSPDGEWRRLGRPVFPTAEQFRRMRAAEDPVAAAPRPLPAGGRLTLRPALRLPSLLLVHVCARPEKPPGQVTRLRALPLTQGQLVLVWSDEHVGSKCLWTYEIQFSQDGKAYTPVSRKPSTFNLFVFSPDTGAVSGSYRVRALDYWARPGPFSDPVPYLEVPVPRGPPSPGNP
Method: Mice studies were performed by Sai Life Sciences (Pune, India). All procedures of the present study were in accordance with the guidelines provided by the Committee for the Purpose of Control and Supervision of Experiments on Animals (CPCSEA) as published in The Gazette of India, December 15, 1998. In addition, prior approval from the Institutional Animal Ethics Committee (IAEC) was obtained before the initiation of the study. Healthy male C57BL/6 mice (8–10 weeks old) weighing between 22 and 25 g were procured (Global, Pune, India). Three to five mice were housed in each cage. Temperature and humidity were maintained at 22 ± 2 °C and 41–63%, respectively, and illumination was controlled to give a sequence of a 12 h light and 12 h dark cycle. In the study’s in-life phase, we provided all mice with cage enrichment to minimize anxiety. We conducted bone marrow sampling under isoflurane anesthesia, maintaining it throughout the entire procedure. […] All procedures were carried out according to our in-house Standard Operating Procedures and monitored by a veterinarian if required. […]
Bone marrow samples from mice were collected at 2, 6, 8 and 10 h after treatment with compound #18 (GT-01803). […] The relative fluorescence unit (RFU) in the IDUA enzymatic assay was measured in duplicates (two replicates) and then averaged to obtain the enzyme activity per animal.

IDUA = molecular target: T2, IDUA (Homo sapiens, UniProt P35475); experiment: IDUA enzymatic activity in patient-derived fibroblasts after rhIDUA with or without compound (4-MUI substrate); type: cell-based; set-up: Institute of Biotechnology and Biomedicine, Autonomous University of Barcelona (UAB), Bellaterra, Spain
T2 sequence (P35475 28-653): T1 sequence (P35475 28-653)
Method: Fibroblasts derived from Hurler (GM00798) and Hurler/Scheie patients (GM02845, GM00512, GM01898, GM00963) were purchased from Coriell (Camden, NJ). Fibroblasts were cultured in Dulbecco’s modified Eagle’s medium (DMEM, Gibco) supplemented with 10% inactivated fetal bovine serum (FBS, Gibco) and 1% penicillin-streptomycin (Thermo Fisher Scientific, Waltham, MA, USA) (growth medium) at 37 °C under 5% CO2. The effect of the protein and/or compound in enhancing IDUA enzymatic activity was evaluated as follows: The specified patient-derived fibroblasts were seeded at 4x10^4 cells per well in 12-well cell culture plates in growth medium. Subsequently, cells were incubated with indicated dose of rhIDUA (obtained from the Institute of Biotechnology and Biomedicine in the UAB, Bellaterra, Spain) in the absence or presence of the compound #18 (GT-01803) for the specified incubation times at 50 μM. After incubation, cells were washed with PBS and detached using Trypsin-EDTA solution (Sigma Aldrich, St. Louis, MO, USA) to prepare cell pellets. The pellets were stored at -80 °C until activity assays were performed. IDUA activity in cell lysates was measured using 4-methylumbelliferyl IDUA substrate (4-MUI, Glycosynth Ltd., #44076, Warrington, UK). Briefly, lysates were resuspended in 120 μL of 0.9% NaCl containing 0.01% Triton X-100 lysis buffer to promote membrane disruption. Next, the cell suspension was sonicated and centrifuged to pellet insoluble materials. Then, 25 μL of lysates were mixed with 25 μL of 200 μM 4-MUI substrate solution in 0.4 M sodium formate, pH 3.5, 0.2% Triton X-100 buffer and incubated for 60 mins at 37 °C. The reaction was stopped by adding 200 μL of 0.5 M Glycine/0.3 M NaOH buffer, pH 10. The liberated 4-methylumbelliferone (4-MU) was measured on a Glomax® Discover microplate reader with excitation at 340 nm and emission at 460 nm. Protein quantification was determined using Pierce BCA Protein Assay Kit (Thermo Fisher Scientific, Waltham, MA, USA). Measurements were interpolated in a 4-MU standard curve and normalised by protein quantity.
For Fig 6A, rhIDUA concentrations of 0.187, 0.375 and 1.25 nM were tested in GM02845 fibroblasts over a 96-hour period, both in the presence and absence of the compound #18 (GT-01803) at 50 μM. In Fig 6B, 1.25 nM of rhIDUA was evaluated in GM02845, GM00798, GM00512, and GM00963 fibroblasts for 96h, with and without the compound #18 (GT-01803) at 50 μM. In Fig 6C, a concentration of 1.25 nM of the protein was applied to fibroblasts for 4, 8, 24 and 96h, with and without the compound #18 (GT-01803) at 50 μM.

[1] = rhIDUA 1.25 nM + GT-01803 50 μM, GM02845 fibroblasts (Fig 6C)

IDUA enzymatic activity levels in bone marrow (rhIDUA (Aldurazyme)): increased
IDUA cell activity compared with rhIDUA alone (IDUA; co-administration of rhIDUA (0.187, 0.375, 1.25 nM) with 50 μM GT-01803, GM02845, 96 h, p ≤ 0.0001): marked dose-dependent increase
mean IDUA cell activity at 96h (IDUA; [1]): 104.3 nmol/h/mg
mean difference in IDUA cell activity at 96h, rhIDUA + compound vs rhIDUA alone (IDUA; [1]): 28.65 ± 3.106 nmol/h/mg
SMILES: CCN(CC(=O)Nc1c(Cl)cccc1Cl)Cc1nc2ccsc2c(=O)[nH]1 [GT-01803]
